The text below walks through data of PubChem BioAssay AID1996.

Structures are written as SMILES. Values after ≈ are worked out from the molar mass of the structure shown.

The conditions of the data set: buffer; pH 7.4; 200.0 µM.
One may read the solubility (kinetic) as solubility judged after dilution from a stock solution rather than from solid. `N#Cc1ccc(Cn2c(=O)oc3ccccc32)cc1` came in with a kinetic solubility of 6 µg/mL (≈ 24 µM).
`COc1ccc(/C=C2\SC(=Nc3ccccc3OC)NC2=O)cc1`: the kinetic solubility turned out to be 1.7 µg/mL (≈ 4.99 µM).
The result for `O=C(NC(=S)N1CCCCC1)c1csc([N+](=O)[O-])c1` reads more than 44.9 µg/mL; that for `COc1ccc(/C=C(\C#N)C(=O)ONC2=NCCCCC2)cc1`, 42.8 µg/mL (≈ 137 µM); that for `Oc1[nH]c2ccccc2c1C=Nc1ccccc1`, 0.7 µg/mL (≈ 2.96 µM).
Compound `O=C(Nc1ccc(OCc2ccccc2)cc1)c1cccs1` gave a kinetic solubility of less than 0.7 µg/mL.
In the case of `CC(=O)C1=C(O)C(=O)N(C)C1c1ccccc1[N+](=O)[O-]` (stereo not drawn), the solubility (kinetic) is more than 41.4 µg/mL.
As to `CCc1ccc(C(=O)Nc2cccnc2Oc2ccc(Cl)cc2)cc1`, the solubility (kinetic) came to 1.5 µg/mL (≈ 4.25 µM).
In turn, `Cc1cc(C(=O)O)c(C)n1Cc1ccncc1` returned a solubility (kinetic) of 32.2 µg/mL (≈ 140 µM).
The compound `O=C(/C=C/c1ccc([N+](=O)[O-])cc1)NCCOc1ccc(F)cc1` showed a solubility (kinetic) of 4 µg/mL (≈ 12.1 µM).
`CCN(CC)CCCN=Cc1c(O)n(-c2cccc(C)c2)c(=O)c2ccccc12` gave a solubility (kinetic) of more than 58.7 µg/mL.
For the compound `O=C(CN1C(=O)NC2(CCCCCC2)C1=O)NC1CC1`, the solubility (kinetic) was more than 41.9 µg/mL.
`COc1ccc2oc(C(=O)NCC3CCCO3)c(C)c2c1` (stereo not drawn) returned a solubility (kinetic) of 39.8 µg/mL (≈ 138 µM).
In the case of `O=C(Nc1ccc(N2CCOCC2)cc1)c1ccc2ncsc2c1`, the solubility (kinetic) amounted to 10.1 µg/mL (≈ 29.8 µM).
On to `C/C(=N/NC(=O)CNC(=O)c1cccnc1)c1ccccc1`, for which the kinetic solubility is more than 44.4 µg/mL.
For `COc1ccccc1OCCC(=O)OCC(=O)Nc1ccc2c(c1)OCO2`, the kinetic solubility amounted to 16.3 µg/mL (≈ 43.7 µM).
The compound `O=C(CN1CCc2ccccc2C1)Nc1ccc(F)cc1F` returned a solubility (kinetic) of 28.5 µg/mL (≈ 94.3 µM).
The compound `CCOP(=O)(c1ccccc1)C(O)c1ccc([N+](=O)[O-])cc1` (stereo not drawn) returned a kinetic solubility of more than 48.2 µg/mL.
`COc1ccc(NS(=O)(=O)c2cc(C(=O)NNC(=O)c3ccncc3)ccc2OC)c(OC)c1` yielded a solubility (kinetic) of more than 73 µg/mL.
To `CCN(CC(=O)Nc1c(F)cccc1F)C(=O)CSc1ccc(F)cc1` belongs more than 57.4 µg/mL.
For `O=S(=O)(c1ccc(S(=O)(=O)N2CCCC2)cc1)N1CCCCC1`, the kinetic solubility is less than 0.4 µg/mL.
Compound `O=C(CCSCc1ccccc1Cl)NCc1cccs1` displayed a kinetic solubility of 32.4 µg/mL (≈ 99.4 µM).
In turn, `O=C(CCc1nnc(C2CCCCC2)o1)NCc1ccc(F)c(F)c1` returned a solubility (kinetic) of more than 52.4 µg/mL.
The result for `CC(CCc1ccc(O)cc1)NC1c2ccccc2-c2ccccc21` (stereo not drawn) reads 26.1 µg/mL (≈ 79.2 µM); that for `O=c1cc(CSc2ccccc2)[nH]c2ccccc12`, 39.7 µg/mL (≈ 148 µM); that for `O=C(NCCCn1ccnc1)C(=O)Nc1ccccc1`, 39.5 µg/mL (≈ 145 µM).
For the compound `CCOC(=O)COc1c(C(=O)OC)sc2ncccc12`, the solubility (kinetic) is 35.6 µg/mL (≈ 121 µM).
As to `O=c1ccc(C(F)(F)F)cn1Cc1cc(=O)n2ccsc2n1`, the kinetic solubility is 44.2 µg/mL (≈ 135 µM).
In turn, `COc1cc(/C=C(\C#N)C(N)=O)ccc1OCc1c(C)no[n+]1[O-]` returned a solubility (kinetic) of 14.6 µg/mL (≈ 44.2 µM).
The result for `O=C(Cc1ccc(Cl)cc1)N1CCN(c2ccccc2)CC1` reads 44.5 µg/mL (≈ 141 µM); that for `O=c1c2ccccc2nc(/C=C/c2ccc(O)cc2)n1-c1ccccc1O`, 5.2 µg/mL (≈ 14.6 µM).
The compound `CCCc1cc(=O)[nH]c(SCC(=O)NCCN2C(=O)CSC2=O)n1` displayed a solubility (kinetic) of more than 55.6 µg/mL.
In the case of `O=c1c2ccccc2ncn1-c1ccccc1[N+](=O)[O-]`, the solubility (kinetic) came to 35.9 µg/mL (≈ 134 µM).
Consider `CC(NC(=O)COc1cccnc1[N+](=O)[O-])c1ccc(Cl)cc1` (stereo not drawn), for which the kinetic solubility was more than 50.4 µg/mL.
With `COc1ccc(C)cc1NC(=O)C1CC(=O)N(CCc2ccccc2)C1` (stereo not drawn), the solubility (kinetic) is more than 52.9 µg/mL.
`Cl.O=C(CN1CCCCC1)c1ccc(F)cc1` returned a solubility (kinetic) of more than 38.7 µg/mL.
As to `O=C(c1ccc(Cl)cc1)N(c1ccccn1)C1CCCCC1`, the solubility (kinetic) amounted to 41.5 µg/mL (≈ 132 µM).
`Cc1ccc2nsnc2c1S(=O)(=O)N1CCN(C)CC1` displayed a kinetic solubility of 45.5 µg/mL (≈ 146 µM).
For `CSc1ccccc1NC(=O)c1ccc2c(c1)CCN2S(C)(=O)=O`, the solubility (kinetic) was found to be 9.1 µg/mL (≈ 25.1 µM).
For `O=Cc1c[nH]c2ccc(OCc3ccccc3)cc12`, the kinetic solubility was less than 0.5 µg/mL.
Regarding `Cc1c(C(=O)O)cc(-c2ccccc2)n1Cc1ccccc1`, the solubility (kinetic) was more than 43.7 µg/mL.
Turning to `CCOc1ccc(S(=O)(=O)N2CC(=O)Nc3ccccc32)cc1`, the solubility (kinetic) stood at 10.7 µg/mL (≈ 32.2 µM).
Compound `COc1ccccc1CC(=O)NCCCc1ccccc1` showed a solubility (kinetic) of more than 42.5 µg/mL.
As to `Cc1nccc(-c2ccc(-n3c(C)ccc3C)cc2)n1`, the solubility (kinetic) came out at 33 µg/mL (≈ 125 µM).
As for `C=CCOc1c(CNc2ccc3[nH]c(=O)[nH]c3c2)cccc1OC`, the solubility (kinetic) is more than 48.8 µg/mL.
Turning to `O=C(O)C1CC=CCC1C(=O)Nc1ccc2c(c1)CCC2` (stereo not drawn), the solubility (kinetic) is more than 42.8 µg/mL.
The result for `CCN1CCN(C(=O)CSc2ccc(C)cc2)CC1` reads 41.2 µg/mL (≈ 148 µM); that for `c1cncc(C2Nc3cccc4cccc(c34)N2)c1`, more than 37.1 µg/mL.
Turning to `CC(C)(C)Nc1ncnc2sc(-c3ccccc3)cc12`, the kinetic solubility is less than 0.2 µg/mL.
The result for `CCC(=O)NCc1ccc(-c2nc3ncccc3o2)cc1` reads more than 42.2 µg/mL; that for `CC/C(O)=C1\C(=O)CC(C)(C)CC1=NCCc1nc2ccccc2[nH]1`, more than 50.9 µg/mL.
The result for `COc1cc(SC)ccc1C(=O)Nc1nc(C)cc(C)n1` reads 40.7 µg/mL (≈ 134 µM); that for `CCOCCn1c(CC)nc2ccccc21`, more than 32.7 µg/mL; that for `CC(=O)Nc1ccc(C(=O)OCC(=O)N2CC3(C)CC2CC(C)(C)C3)cc1` (stereo not drawn), 15.6 µg/mL (≈ 41.9 µM).
For the compound `O=C(CSc1nc2ccccc2c(=O)n1CCCN1CCOCC1)Nc1ccc(Br)cc1`, the kinetic solubility came out at 5.3 µg/mL (≈ 10.2 µM).
To `C=CCn1c(C)cc(C(=O)Cn2c(C(C)O)nc3ccccc32)c1C` (stereo not drawn) belongs 29.4 µg/mL (≈ 87.1 µM); to `COc1ccc(-c2noc(CN(C)Cc3ccccc3)n2)cc1`, 5.7 µg/mL (≈ 18.4 µM); to `Cc1ccc(N(CC(=O)N2CCc3ccccc3C2)S(C)(=O)=O)cc1`, more than 53.8 µg/mL.
As for `CCOC(=O)C(NC(=O)C1C(C)N1S(=O)(=O)c1ccc(C)cc1)C(=O)OCC` (stereo not drawn), the solubility (kinetic) was more than 61.9 µg/mL.
The result for `O=C(CNC(=O)c1ccc(Cl)cc1)NC1CCCCC1` reads 6.6 µg/mL (≈ 22.4 µM); that for `CC(C)(Oc1ccc(CCNC(=O)c2ccc(Cl)cc2)cc1)C(=O)O`, more than 54.3 µg/mL.
Consider `O=C(/C=C/c1ccccc1)NC(=S)Nc1ccccc1`, for which the solubility (kinetic) is less than 0.3 µg/mL.
For the compound `O=C(C1=C(O)C(=O)N(c2ncccn2)C1c1ccc(F)cc1)c1ccco1` (stereo not drawn), the solubility (kinetic) was 53.1 µg/mL (≈ 145 µM).
`COc1ccc(NC(=O)C(=O)Nc2cccc3ccccc23)c(OC)c1` had a kinetic solubility of less than 0.4 µg/mL.
As for `Cc1cc(Br)ccc1NC(=S)NC1CCCC1`, the kinetic solubility was 19.1 µg/mL (≈ 61 µM).
The compound `CC1=C(C(N)=O)C(c2cccs2)NC(=O)N1` (stereo not drawn) yielded a solubility (kinetic) of more than 35.6 µg/mL.
Take `CC(=O)C1C(=O)c2c(cccc2[N+](=O)[O-])C1=Nc1cccc(Cl)c1` (stereo not drawn): the solubility (kinetic) is 1.6 µg/mL (≈ 4.67 µM).
On to `Cc1ccc(CN2CCSCC2)cc1`, for which the solubility (kinetic) amounted to 7.4 µg/mL (≈ 35.7 µM).
`Oc1c(Cl)cc(CN2CCOCC2)c2cccnc12` came in with a kinetic solubility of 33.6 µg/mL (≈ 121 µM).
For `CC(=O)C1=C(O)C(=O)N(Cc2ccccc2)C1c1cccc([N+](=O)[O-])c1` (stereo not drawn), the kinetic solubility is more than 52.9 µg/mL.
Regarding `CC1C(=O)N2CCCc3cc(NC(=O)c4ccccc4F)cc1c32` (stereo not drawn), the solubility (kinetic) was more than 48.7 µg/mL.
The compound `O=c1c2ccccc2nc2ccccn12` had a kinetic solubility of 28.7 µg/mL (≈ 146 µM).
For the compound `O=C(Nc1cccc2ncccc12)c1ccc([N+](=O)[O-])o1`, the kinetic solubility was more than 42.5 µg/mL.
`CCOC(=O)/C(C#N)=C/Nc1cc(F)ccc1C`: the kinetic solubility was found to be 3.2 µg/mL (≈ 12.9 µM).
Compound `CCC1CCCCN1S(=O)(=O)c1ccccc1` (stereo not drawn) came in with a kinetic solubility of 31.5 µg/mL (≈ 124 µM).
`CN1CCCC(OC(=O)c2ccc(Cl)cc2)C1.Cl` (stereo not drawn) showed a solubility (kinetic) of 41.5 µg/mL.
On to `O=C1NC(=Nc2ccccc2)SC1Cc1ccccc1` (stereo not drawn), for which the kinetic solubility was determined as 4.6 µg/mL (≈ 16.3 µM).
Regarding `Cc1ccc(-c2noc(COC(=O)c3ccco3)n2)cc1`, the kinetic solubility turned out to be 8.8 µg/mL (≈ 31 µM).
For the compound `Cc1nn(-c2ccc(C(=O)O)cc2)c2c1C(=O)CC(C)(C)C2`, the kinetic solubility is more than 44.8 µg/mL.
The compound `COc1ccc(NC(=O)c2ccc(-c3ccc([N+](=O)[O-])cc3)o2)cc1` yielded a kinetic solubility of 1.2 µg/mL (≈ 3.55 µM).
`CC(=O)Oc1ccc(C(=O)NCc2ccco2)cc1` gave a kinetic solubility of 37.6 µg/mL (≈ 145 µM).
The result for `OC(CNc1nc(C(F)(F)F)nc2ccccc12)c1ccccc1` (stereo not drawn) reads 6.3 µg/mL (≈ 18.9 µM).
Compound `Cc1ccc(N(CC(=O)N2CCCC2)S(C)(=O)=O)c(C)c1` yielded a kinetic solubility of more than 46.6 µg/mL.
`Cc1ccc(S(=O)(=O)Nc2cccc(S(=O)(=O)Nc3ccccc3C(=O)O)c2)c(C)c1` showed a solubility (kinetic) of more than 69.1 µg/mL.
`O=S(=O)(Nc1ccccc1O)c1ccc(-c2ccccc2)cc1`: the kinetic solubility was found to be 12.3 µg/mL (≈ 37.8 µM).
`Cc1ccc(CN2CCN(c3ccccc3)CC2)o1.O=C(O)C(=O)O` gave a solubility (kinetic) of 49.1 µg/mL.
For `CC(C)N1CCN(C(=O)c2ccc([N+](=O)[O-])cc2)CC1`, the solubility (kinetic) amounted to 27.3 µg/mL (≈ 98.4 µM).
To `Cc1nc(SCCOc2ccccc2F)[nH]c(=O)c1Cc1ccccc1` belongs 0.6 µg/mL (≈ 1.62 µM); to `CCOC(=O)c1ccccc1NC(=O)C1CCCO1` (stereo not drawn), more than 39.5 µg/mL.
For `O=C(O)/C=C/C(=O)Nc1ccc(O)cc1`, the solubility (kinetic) was more than 31.1 µg/mL.
In turn, `Cc1cnc(C(=O)OCC(=O)c2ccc(F)cc2)cn1` gave a solubility (kinetic) of more than 41.1 µg/mL.
The result for `CSc1nc2c(c(=O)[nH]c(=O)n2C)n1Cc1ccccc1` reads more than 45.4 µg/mL; that for `Cc1cc(C)c2c3c(sc2n1)C(=O)N(c1ccccc1C)CC(=O)N3`, 25.5 µg/mL (≈ 72.6 µM); that for `CC(=O)c1ccccc1OCCOc1ncnc2sccc12`, more than 47.2 µg/mL.
Consider `NS(=O)(=O)c1ccc(CNC(=O)Cc2ccsc2)cc1`, for which the kinetic solubility is more than 46.6 µg/mL.
The result for `CNC(=S)Nc1cccc(S(=O)(=O)NCc2ccco2)c1` reads more than 48.8 µg/mL; that for `Cc1ccc(Nc2nc(N)nc(CCl)n2)c(C)c1`, more than 39.6 µg/mL.
The compound `Cc1cccc(Nc2nnc(SCC(=O)NCC3CCCO3)s2)c1C` (stereo not drawn) had a kinetic solubility of more than 56.8 µg/mL.
The compound `COc1ccc(OC)c2sc(N3CCc4ccccc4C3)nc12` gave a kinetic solubility of 0.6 µg/mL (≈ 1.84 µM).
Turning to `C=CCNC(=O)NC(=O)CSc1nnc(C(F)(F)F)n1C`, the solubility (kinetic) was more than 48.5 µg/mL.
As for `CS(=O)(=O)CC(=O)Nc1ccc2nc3n(c(=O)c2c1)CCCCC3`, the solubility (kinetic) was 43.2 µg/mL (≈ 124 µM).
For `COC(=O)c1ccccc1N=Cc1c(O)[nH]c(=S)[nH]c1=O`, the kinetic solubility turned out to be 6.1 µg/mL (≈ 20 µM).
Compound `CC(=O)N1CCN(c2ncnc3ccccc23)CC1` yielded a kinetic solubility of more than 38.4 µg/mL.
